Values quoted from earlier work, collected in patent US20230295183A1, “HOT MELT EXTRUDED SOLID DISPERSIONS CONTAINING A BCL2 INHIBITOR” (Newave Pharmaceutical Inc., priority 2020, published 2023).
pEC50, pIC50, pKi: −log10 of the molar value.

Key:
[1] = in vivo
[2] = system: established tumors; details: mouse, in vivo
[3] = system: H345 xenograft; details: 100 mg/kg/day, H345 xenograft model
[4] = system: xenograft models of small-cell lung cancer and acute lymphoblastic leukemia; details: oral administration, alone
[5] = system: SCLC H146 cell line; details: read-out: IC50 against SCLC H146 cell line
[6] = system: circulating platelets; details: clinical trial; dose-limiting thrombocytopenia
[7] = biological target: T1, Bcl-w (Homo sapiens, UniProt Q92843)
T1 sequence (Q92843 1-193): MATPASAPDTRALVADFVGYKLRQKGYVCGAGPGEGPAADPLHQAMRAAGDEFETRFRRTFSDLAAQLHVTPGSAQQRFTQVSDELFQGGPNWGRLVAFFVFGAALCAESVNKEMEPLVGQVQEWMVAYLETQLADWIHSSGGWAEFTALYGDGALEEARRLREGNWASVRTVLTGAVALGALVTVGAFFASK

[8] = biological target: Mcl-1 (Homo sapiens, UniProt Q07820)
[9] = system: RS4;11 xenografts; details: single dose of 100 mg/kg
[10] = system: CLL; details: read-out: average EC50, apoptosis in CLL
[11] = system: RS4;11 cells

Mcl-1, sequence (Q07820 whole entry): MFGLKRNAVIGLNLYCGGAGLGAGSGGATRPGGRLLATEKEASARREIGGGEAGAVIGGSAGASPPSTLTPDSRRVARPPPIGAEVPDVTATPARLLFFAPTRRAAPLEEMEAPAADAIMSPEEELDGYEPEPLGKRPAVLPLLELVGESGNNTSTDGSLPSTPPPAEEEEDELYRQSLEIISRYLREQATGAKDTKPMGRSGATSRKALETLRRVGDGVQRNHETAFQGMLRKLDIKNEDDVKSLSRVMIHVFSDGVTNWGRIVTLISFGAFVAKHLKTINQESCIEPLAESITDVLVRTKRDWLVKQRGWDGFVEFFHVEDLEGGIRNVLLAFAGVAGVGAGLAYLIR

aqueous solubility | oral bioavailability [1] | pIC50 [5] | pKi [7] | activity to Mcl-1 [8] | pEC50 [10] | pEC50 [11] | SMILES | antitumor effect in animal models [2] | TGI [3] [%] | treated tumors indicating at least a 50% reduction in tumor volume [3] [%] | antitumor effect in xenograft models [4] | effect on number of circulating platelets [6] | maximal tumor growth inhibition [9] [%] | tumor growth delay [9] [%]
low aqueous solubility | not orally bioavailable |  |  |  |  |  | CN(C)CC[C@H](CSc1ccccc1)Nc1ccc(S(=O)(=O)NC(=O)c2ccc(N3CCN(Cc4ccccc4-c4ccc(Cl)cc4)CC3)cc2)cc1[N+](=O)[O-] [ABT-737] | causes regression of established tumors |  |  |  |  |  | 
 | orally bioavailable | 6.96 | ≥ 9.00 |  |  |  | CC1(C)CCC(c2ccc(Cl)cc2)=C(CN2CCN(c3ccc(C(=O)NS(=O)(=O)c4ccc(N[C@H](CCN5CCOCC5)CSc5ccccc5)c(S(=O)(=O)C(F)(F)F)c4)cc3)CC2)C1 [ABT-263] |  | 80 | 20 | complete tumor regressions | rapid, concentration-dependent decrease in the number of circulating platelets |  | 
 |  |  |  | no activity | 8.52 | 8.10 | CC1(C)CCC(CN2CCN(c3ccc(C(=O)NS(=O)(=O)c4ccc(NCC5CCOCC5)c([N+](=O)[O-])c4)c(Oc4cnc5[nH]ccc5c4)c3)CC2)=C(c2ccc(Cl)cc2)C1 [ABT-199] |  |  |  |  |  | 95 | 152
